Results taken from patent publication US7807369B2, “Methods and means for the treatment of HPV induced intraepithelial neoplasia” (Leiden University Medical Center, priority 2005, dated 2010).

Columns and labels:
high-grade VIN = assay: Clinical response of high-grade VIN lesions to 5% imiquimod cream; format: in vivo, human
Description: Twenty-nine women with high-grade VIN (age range, 24-73 years; median age, 47 years) were recruited from the departments of gynecology of the Academic Medical Center, and Leiden and Erasmus University Medical Center, The Netherlands. On the average, these patients had been diagnosed with VIN3 5,4 years before enrollment in the study (range, 6 months-15 years). Eighteen women had undergone previous treatments for VIN3 (surgical excision, laser therapy or imiquimod treatment (#21, 24, 27)) before study entry.
(§1) Seventeen of these 29 subjects (age 29-60 years, median 43 years) were experimentally treated with a 5% imiquimod cream. The patients were asked to apply the cream to the affected areas on the vulva twice weekly overnight for a maximum period of 16 weeks. In order to analyze the effect of imiquimod treatment on the HPV16-specific immune response, we collected serial blood and serum samples before the start of imiquimod treatment (T=0), after 8 weeks of treatment (T=8), and at the end of treatment (T=16). Vulvar lesions were assessed by direct measurement and photographic records at entry, and after 8 and 16 weeks of treatment. Clinical responses were defined as a complete response (CR), a partial response type1 (PR1), as defined by a reduction in lesion diameter from 76-99%, a partial response type2 (PR2), as defined by a reduction in lesion diameter from 26-75%, or no clinical response.
Statistical analysis of the HPV16-specific proliferative responses associated with cytokine production was performed using Fisher's exact test. Fisher's Exact test (2-tailed) was used to analyze HPV-specific immunity to clinical response upon treatment with imiquimod. Statistical analyzes were performed using Graphpad Instat Software (version 3.0).

[1] = tested on: HPV16-specific IFNγ-producing T-cells; assay: HPV16-specific T-cell reactivity by IFNγ ELISPOT before, during and after imiquimod treatment; format: in vivo, human; details: PBMC at week 0, 8 and 16
Description: as §1, with “Clinical responses were defined as a complete response (CR), a partial response type1 (PR1), as defined by a reduction in lesion diameter from 76-99%, a partial response type2 (PR2), as defined by a reduction in lesion diameter from 26-75%, or no clinical response.” left out
The number of IFNγ producing HPV-specific T-cells, present in the peripheral blood of the 17 patients treated with imiquimod, was quantified using ELISPOT that was performed as described previously (29; 30). […] Spots were counted with a fully automated computer-assisted-video-imaging analysis system (Bio Sys). Specific spots were calculated by subtracting the mean number of spots+2×SD of the medium control from the mean number of spots in experimental wells provided that the mean number of spots of the medium control wells were either <10 or >10 with a standard deviation <20% of the mean. […]

[2] = tested on: HPV16 VLP-specific IgG and IgA; assay: HPV16 VLP ELISA of serum over time in imiquimod-treated patients; format: in vivo, human; details: serum at week 0, 8 and 16; 17 VIN3 patients
Experimental: IgG and IgA reactivity to HPV16 VLPs over time in 17 VIN3 patients treated with imiquimod. At least two serum specimens were tested in every patient. Serological responses are shown at week 0 (before imiquimod treatment), week 8 (during imiquimod treatment) and at week 16 (after imiquimod treatment). The OD values are depicted as median ±SD of positive responses. The OD values were calculated by subtraction of the background response value and the mean OD value of the young children's sera.
as §1, with “response. […]” for “response.”

VIN = details: topical treatment of VIN; estimate from refs 17-21; cited from earlier work
[3] = of 17 women treated, 5% cream, max 16 weeks

Compound: CC(C)Cn1cnc2c(N)nc3ccccc3c21 [imiquimod, 1-(2-methylpropyl)-1H-imidazo[4,5-c]quinolin-4-amine]
- women with overt clinical response (CR or PR1, 76-100% reduction in lesion size) (high-grade VIN; 13 of 17 women with high-grade VIN, 5% cream twice weekly, max 16 weeks): 76%
- likelihood of CR or PR1 in patients without an HPV-specific immune response (high-grade VIN; HPV16+ patients (n=15), versus those with a response, p=0.03, 2-sided Fisher's exact test): less likely to show such a clinical improvement
- patients with no reduction in size of the affected area of vulvar disease (high-grade VIN; [3]): Three
- patients with only minimal improvement upon treatment (high-grade VIN; [3]): one
- patients with complete or near complete clinical response (CR or PR1) (high-grade VIN; the 8 HPV16+ patients with an HPV-specific Th1 immune response (of n=15 HPV16+)): 8 patients
- effect on numbers of HPV16-specific T-cells [1]: In none of the patients a clear-cut increase of HPV16-specific T-cells was detected
- change of HPV16 VLP-specific IgG and IgA response [2]: did not overly change
- clinical success rates (VIN): 30-87%
